Experimental data: patent US20200237766A1, “PKM2 ACTIVATORS IN COMBINATION WITH REACTIVE OXYGEN SPECIES FOR TREATMENT OF CANCER” (TOLERO PHARMACEUTICALS, INC., priority 2017, published 2020)
Read-outs that look alike come from different tables or passages of the source.

Molecular target: PKM2 (Homo sapiens, UniProt P14618)
Test: PKM2 activation biochemical assay (AC50 / max. response vs fructose 1,6-bisphosphate)
Conditions: for Max. Resp. (%): % maximum response in a biochemical assay as compared with Fructose 1,6-bisphosphate
[1] = biochemical assay, read-out: PKM2 AC50

Sequence of PKM2 (P14618 whole entry): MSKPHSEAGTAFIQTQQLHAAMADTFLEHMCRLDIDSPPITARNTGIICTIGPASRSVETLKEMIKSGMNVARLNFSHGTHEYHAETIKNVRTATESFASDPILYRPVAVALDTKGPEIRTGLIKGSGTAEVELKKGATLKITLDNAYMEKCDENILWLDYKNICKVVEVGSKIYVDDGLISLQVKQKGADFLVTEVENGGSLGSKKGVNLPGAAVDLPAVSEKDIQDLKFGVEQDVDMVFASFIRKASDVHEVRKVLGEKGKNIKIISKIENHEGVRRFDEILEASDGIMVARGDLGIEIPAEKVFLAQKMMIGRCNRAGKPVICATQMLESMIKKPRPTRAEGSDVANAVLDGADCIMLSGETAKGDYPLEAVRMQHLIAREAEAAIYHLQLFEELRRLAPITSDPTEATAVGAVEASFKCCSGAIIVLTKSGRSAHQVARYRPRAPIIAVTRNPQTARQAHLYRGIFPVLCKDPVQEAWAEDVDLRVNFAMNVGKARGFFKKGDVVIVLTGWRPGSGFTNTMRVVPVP

Row | Structure (SMILES) | Max. Resp. (%) | AC50 [1] [µM] | AC50 [µM]
1 | CCN(CC)CCN(Cc1ccccc1C(C)C)C(=O)c1cc(C(F)(F)F)n[nH]1 [Compound 184] | 85% | 1.95 | –
2 | CCN(CC)CCCN(Cc1ccccc1Cl)C(=O)c1cc(C(F)(F)F)n[nH]1 [Compound 185] | 53% | 1.75 | –
3 | CN(C)CCCN(Cc1ccccc1Cl)C(=O)c1cc(C(F)(F)F)n[nH]1 [Compound 186] | 100% | 0.375 | –
4 | CN(C)CCN(Cc1ccccc1Cl)C(=O)c1cc(C(F)(F)F)n[nH]1 [Compound 187] | 100% | 0.295 | –
5 | CC1CC(C)CN(CCN(Cc2ccccc2Cl)C(=O)c2cc(C(F)(F)F)n[nH]2)C1 (stereo not shown) [Compound 188] | 60% | 0.046 | –
6 | O=C(c1cc(C(F)(F)F)n[nH]1)N(CCN1CCCCCC1)Cc1ccccc1Cl [Compound 189] | 100% | 0.024 | –
7 | CC1CCN(CCN(Cc2ccccc2Cl)C(=O)c2cc(C(F)(F)F)n[nH]2)CC1 [Compound 190] | 100% | 0.042 | –
8 | CC1CCCN(CCN(Cc2ccccc2Cl)C(=O)c2cc(C(F)(F)F)n[nH]2)C1 (stereo not shown) [Compound 191] | 100% | 0.029 | –
9 | CC1CCCCN1CCN(Cc1ccccc1Cl)C(=O)c1cc(C(F)(F)F)n[nH]1 (stereo not shown) [Compound 192] | 100% | 0.104 | –
10 | CCN(CC)CCN(Cc1ccccc1Cl)C(=O)c1[nH]nc(Cl)c1F [Compound 193] | 58% | 14 | –
11 | O=C(c1cc(C(F)(F)F)n[nH]1)N(CCN1CCCCCC1)Cc1ccc(O)cc1Cl [Compound 194] | 100% | 0.043 | –
12 | O=C(c1cc(C(F)(F)F)n[nH]1)N(CCN1CCCCCC1)Cc1ccc(O)cc1F [Compound 195] | 100% | – | 0.095
13 | Nc1ccc(Cl)c(CN(CCN2CCCCCC2)C(=O)c2cc(C(F)(F)F)n[nH]2)c1 [Compound 196] | 100% | 0.099 | –
14 | O=C(c1cc(C(F)(F)F)n[nH]1)N(CCN1CCCCCC1)Cc1ccccc1F [Compound 197] | 100% | 0.063 | –
15 | O=C(c1cc(C(F)(F)F)n[nH]1)N(CCN1CCCCCC1)Cc1c(F)cccc1F [Compound 198] | 100% | 0.13 | –
16 | CCC1CCN(CCN(Cc2ccccc2Cl)C(=O)c2cc(C(F)(F)F)n[nH]2)CC1 [Compound 199] | 100/100% | 0.1 | –
17 | CC1CCCN(CCN(Cc2cc(N)ccc2Cl)C(=O)c2cc(C(F)(F)F)n[nH]2)C1 (stereo not shown) [Compound 200] | 100% | 0.13 | –
18 | CC1CCCN(CCN(Cc2ccccc2F)C(=O)c2cc(C(F)(F)F)n[nH]2)C1 (stereo not shown) [Compound 201] | 100% | 0.215 | –
19 | CC1CCCCN1CCN(Cc1cc(N)ccc1Cl)C(=O)c1cc(C(F)(F)F)n[nH]1 (stereo not shown) [Compound 202] | 100% | 0.395 | –
20 | CC1CCCCN1CCN(Cc1ccccc1F)C(=O)c1cc(C(F)(F)F)n[nH]1 (stereo not shown) [Compound 203] | 100% | 0.55 | –
21 | CCN(CCN(Cc1ccccc1Cl)C(=O)c1cc(C(F)(F)F)n[nH]1)C(C)C [Compound 204] | 53% | 0.88 | –
22 | O=C(c1cc(C(F)(F)F)n[nH]1)N(CCN1CCC(F)(F)CC1)Cc1ccccc1Cl [Compound 205] | 100% | 2.05 | –

Row | Structure (SMILES) | Max. Resp. (%) | AC50 [1] [µM] | AC50 [µM]
23 | O=C(c1cc(C(F)(F)F)n[nH]1)N(CCN1CCCC1)Cc1cccc2[nH]cc(F)c12 [Compound 206] | 100% | 0.136 | –
24 | Nc1ccc(CN(CCN2CCCCCC2)C(=O)c2cc(C(F)(F)F)n[nH]2)c(Cl)c1 [Compound 207] | 75% | 0.17 | –
25 | O=C(c1cc(C(F)(F)F)n[nH]1)N(CCN1CCCCCC1)Cc1cccc2nc[nH]c12 [Compound 208] | 100% | 0.125 | –
26 | CCCN(CC)CCN(Cc1ccccc1Cl)C(=O)c1cc(C(F)(F)F)n[nH]1 [Compound 209] | 100% | 0.052 | –
27 | O=C(c1cc(C(F)(F)F)n[nH]1)N(CCN1CCCCCC1)Cc1cccc([N+](=O)[O-])c1Cl [Compound 210] | 100% | – | 0.133
28 | O=C(c1cc(C(F)(F)F)n[nH]1)N(CCN1CCCCCC1)Cc1c(Cl)cccc1[N+](=O)[O-] [Compound 211] | 100% | 0.123 | –
29 | CC1CCCC(C)N1CCN(Cc1ccccc1Cl)C(=O)c1cc(C(F)(F)F)n[nH]1 (stereo not shown) [Compound 212] | 53% | 5.81 | –
30 | Nc1cccc(CN(CCN2CCCCCC2)C(=O)c2cc(C(F)(F)F)n[nH]2)c1Cl [Compound 213] | 100% | – | 0.06
31 | Nc1ccc(F)c(CN(CCN2CCCCCC2)C(=O)c2cc(C(F)(F)F)n[nH]2)c1 [Compound 214] | 100% | 0.153 | –
32 | COc1ccc(N)cc1CN(CCN1CCCCCC1)C(=O)c1cc(C(F)(F)F)n[nH]1 [Compound 215] | 100% | 1.19 | –
33 | Nc1cccc(CN(CCN2CCCCCC2)C(=O)c2cc(C(F)(F)F)n[nH]2)c1F [Compound 216] | 100% | 0.117 | –
34 | COc1c(N)cccc1CN(CCN1CCCCCC1)C(=O)c1cc(C(F)(F)F)n[nH]1 [Compound 217] | 100% | 0.23 | –
35 | Nc1cccc(Cl)c1CN(CCN1CCCCCC1)C(=O)c1cc(C(F)(F)F)n[nH]1 [Compound 218] | 100% | 0.041 | –
36 | O=C(c1cc(C(F)(F)F)n[nH]1)N(CCN1CCC(O)CC1)Cc1ccccc1Cl [Compound 219] | 100% | 1.3 | –
37 | O=C(c1cc(C(F)(F)F)n[nH]1)N(CCN1CCCC(O)C1)Cc1ccccc1Cl (stereo not shown) [Compound 220] | 100% | 0.465 | –
38 | CC(CN(Cc1c(N)cccc1Cl)C(=O)c1cc(C(F)(F)F)n[nH]1)N1CCCC1 (stereo not shown) [Compound 221] | 60% | 0.223 | –
39 | Nc1cccc(Cl)c1CN(CCN1CCCC1)C(=O)c1cc(C(F)(F)F)n[nH]1 [Compound 222] | 100% | – | 0.056
40 | CCCN(CC)CCN(Cc1c(N)cccc1Cl)C(=O)c1cc(C(F)(F)F)n[nH]1 [Compound 223] | 100% | – | 0.032
41 | Nc1cccc(Cl)c1CN(CCN1CCS(=O)(=O)CC1)C(=O)c1cc(C(F)(F)F)n[nH]1 [Compound 224] | 100% | 0.41 | –
42 | Nc1cccc(Cl)c1CN(CCN1CCCC(O)C1)C(=O)c1cc(C(F)(F)F)n[nH]1 (stereo not shown) [Compound 225] | 100% | 0.102 | –
43 | NC1CC(N(Cc2ccccc2Cl)C(=O)c2cc(C(F)(F)F)n[nH]2)C1 (stereo not shown) [Compound 226] | 80% | 12 | –
44 | O=C(c1cc(C(F)(F)F)n[nH]1)N(Cc1ccccc1Cl)CC1CCN1 (stereo not shown) [Compound 227] | 100% | 0.215 | –

Row | Structure (SMILES) | Max. Resp. (%) | AC50 [1] [µM] | AC50 [µM]
45 | CS(=O)(=O)N1CCCC(CCN(Cc2ccccc2Cl)C(=O)c2cc(C(F)(F)F)n[nH]2)C1 (stereo not shown) [Compound 228] | 100% | 2 | –
46 | O=C(c1cc(C(F)(F)F)n[nH]1)N(CCc1ccc(O)cc1)Cc1ccccc1Cl [Compound 230] | 100% | 12 | –
47 | O=C(c1cc(C(F)(F)F)n[nH]1)N(Cc1ccccc1Cl)CC1CCCN1 (stereo not shown) [Compound 232] | 85% | 0.32 | –
48 | Nc1cccc(Cl)c1CN(CC1CCN1)C(=O)c1cc(C(F)(F)F)n[nH]1 (stereo not shown) [Compound 233] | 75% | 0.93 | –
49 | Nc1cccc(Cl)c1CN(CCN1CCC(O)C1)C(=O)c1cc(C(F)(F)F)n[nH]1 (stereo not shown) [Compound 234] | 100% | 0.111 | –
50 | COC1CCN(CCN(Cc2c(N)cccc2Cl)C(=O)c2cc(C(F)(F)F)n[nH]2)C1 (stereo not shown) [Compound 235] | 100% | 0.133 | –
51 | Nc1cccc(Cl)c1CN(CCN1CCCC(F)C1)C(=O)c1cc(C(F)(F)F)n[nH]1 (stereo not shown) [Compound 236] | 73% | 0.16 | –
52 | COC1CCCN(CCN(Cc2c(N)cccc2Cl)C(=O)c2cc(C(F)(F)F)n[nH]2)C1 (stereo not shown) [Compound 237] | 100% | 0.183 | –
53 | Nc1cccc(Cl)c1CN(CCN1CCC(F)CC1)C(=O)c1cc(C(F)(F)F)n[nH]1 [Compound 238] | 100% | 0.116 | –
54 | Nc1cccc(Cl)c1CN(CCN1CCCOCC1)C(=O)c1cc(C(F)(F)F)n[nH]1 [Compound 239] | 100% | – | 0.115
55 | CCCN(CC)CCN(Cc1c(N)cccc1F)C(=O)c1cc(C(F)(F)F)n[nH]1 [Compound 240] | 100% | 0.068 | –
56 | Nc1cccc(Cl)c1CN(CCN1CC[C@H](F)C1)C(=O)c1cc(C(F)(F)F)n[nH]1 [Compound 241] | 100% | – | 0.125
57 | Nc1cccc(Cl)c1CN(CCN1CC[C@@H](F)C1)C(=O)c1cc(C(F)(F)F)n[nH]1 [Compound 242] | 100% | – | 0.465
58 | Nc1cccc(Cl)c1CN(CCN1CCCC(F)CC1)C(=O)c1cc(C(F)(F)F)n[nH]1 (stereo not shown) [Compound 243] | 100% | 0.106 | –
59 | O=C(c1cc(C(F)(F)F)n[nH]1)N(Cc1ccc(O)cc1F)CC1CCC1 [Compound 244] | 107% | 0.062 | –
60 | O=C(c1cc(Br)n[nH]1)N(Cc1ccc(O)cc1F)CC1CCC1 [Compound 245] | 100% | 0.035 | –
61 | O=C(c1cc(C2CC2)n[nH]1)N(Cc1ccc(O)cc1F)CC1CCC1 [Compound 246] | 85% | – | –
62 | O=C(CCSC(=S)NCc1cccnc1)c1ccccc1 [PMA8] | 24% | 7.64 | –
63 | O=C(CCSC(=S)NCc1cccnc1)c1ccc(Cl)cc1 [PMA9] | – | > 20 | –
64 | O=C(CCSC(=S)NCc1cccnc1)c1ccc(F)cc1 [PMA10] | 48% | 9.83 | –
65 | O=C(CCSC(=S)NCc1cccnc1)c1ccc(O)cc1 [PMA11] | 76% | 6.23 | –
66 | N#Cc1ccc(C(=O)CCSC(=S)NCc2cccnc2)cc1 [PMA12] | 61% | 4.39 | –
